Where a SMILES comes first, the peptide text is derived from it.
Test: U-tube lucigenin (chloride) transport experiment
Settings: 1 mM in chloroform, 20 mM MOPS, 100 mM NaCl, pH 7.4, 25 °C, up to 24 h, UV at 455 nm
Method: To assess if these compounds can act as cation carriers, U-tube experiments for sodium picrate transport were performed on 1, Cu(II)[1]Cl2 and Cu(II)[2]Cl2. […] Similarly, a U-tube experiment for chloride transport was performed using lucigenin.[4],[40]
5.7 Preparation of large unilamellar vesicles for CF release assays
A 50 mM 5(6)-carboxyfluorescein (CF) solution in MOPS buffer (20 mM MOPS, 100 mM NaCl, pH 7.4) was prepared by dissolving 5/6-CF in MOPS buffer, adding a sodium hydroxide (1M) solution dropwise until pH 11 was reached. The resulting solution was the slowly acidified to pH 7.4.
EYPC-cholesterol (4:1) 800 nm vesicles were prepared as described above, using the above mentioned 5(6)-carboxyfluorescein (CF) (50 mM) solution. […]
The U-tube was incubated in a water bath at 25 °C and the chloroform phase was stirred at 300 rpm during the entire experiment, ensuring efficient diffusion of any potential carrier-ion complex to the receiving phase. Aliquots (1 mL) were taken from the receiving phase and analysed for the presence of picrate by UV spectroscopy (at 356 nm). […]
Figure S11: U-tube metal picrate transport data for foldamer 1 (brown), Cu[2]Cl2 (black), Cu[1]Cl2 (green), and the control transporter, dibenzo-18-crown-6 (red). Absorbance at 356 nm. […]
Aliquots (1 mL) were taken from the receiving phase and analysed for the presence of lucigenin by UV spectroscopy (at 455 nm). […]

SMILES: CC(C)(NC(=O)C(C)(C)NC(=O)C(C)(C)NC(=O)C(C)(C)NC(=O)C(C)(C)n1cc(CN(Cc2ccccn2)Cc2ccccn2)nn1)C(=O)NC(C)(C)C(=O)NC(C)(C)C(=O)NC(C)(C)C(=O)OCC[Si](C)(C)C [foldamer 2] (HELM PEPTIDE1{[CC(C)(C(=O)[*:2])n1cc(CN(Cc2ccccn2)Cc2ccccn2)nn1].[Aib].[Aib].[Aib].[Aib].[Aib].[Aib].[Aib].[C[Si](C)(C)CCO[*:1]]}$$$$V2.0)
- chloride (lucigenin) transport through the organic phase: no chloride was carried through the organic phase
